Laboratory results reported in patent publication US6949521B2, “Therapeutic azide compounds” (priority 1995, dated 2005).
Like-named read-outs stand apart in the source and are kept apart here. One block for each compound: values may come before it.

Key:
[1] = in vitro; details: female, NIH Swiss, mouse, liver homogenate
Method: (§4) All the solvents were of HPLC grade. Chromatography was performed on an Altech Hypersil ODS C18 (5 μm particle size, 4.5×150 mm, Altech Associates, Deerfield, Ill.).
(§5) In vitro metabolism study. Female NIH Swiss mice (Harland Sprague-Dawley, Indianapolis, Ind.) were sacrificed and serum, liver and brain tissues were collected before each experiment. Serum was collected from several animals. The brain and liver were washed in normal saline at 4° C., wiped and then weighed. […] Samples and blanks of volume 400 μL were collected at 0, 5, 15, and 30 minutes and at 1, 2, 3, 4 and 5 hours.
(§6) To measure the analyte concentrations in serum, liver or brain homogenate, 400 μL of sample was mixed with 50 μL of internal standard (AzdU, 5 μg/mL) and 0.7 mL of acetonitrile. After centrifugation, the supernatant was decanted to another tube and treated with anhydrous Na2SO4, then vortexed for one minute and centrifuged again. The organic layer was separated and evaporated under nitrogen stream at room temperature. The residue was reconstituted in mobile phase A and filtered through MPS-I micropartition system (3KD membranes (Amicon Inc., Beverly, Mass.) by centrifugation for 50 minutes at 2000 rpm to further clean-up the samples. 100 μL of filtrate was injected for analysis.

[2] = In vitro metabolism study of 6-AAP and ara-A in mouse liver homogenate, serum and brain homogenate
Method: as §4, §5, §6

[3] = Pharmacokinetics in mouse serum after iv and oral administration of cordycepin or its azide derivative; assay type: in vivo, mice
Method: 100 mg/kg of cordycepin or the azide derivative of cordycepin were administered intravenously (iv) (dissolved in methylsulfoxide (20 mg/ml)), or orally (dissolved in 30% glycerin (8.3 mg/ml)). Three animals for each time point were sacrificed at 0.08, 0.25, 0.5, 0.75, 1.0, 1.5, 2.0, 3.0 and 4.0 h after drug administration. Blood (serum) was collected and immediately analyzed.
An AzdU was used as an internal standard (20 μg/ml) to measure the azide derivative concentrations in serum. Tubes were vortexed and centrifuged at 9,000 rpm for 5 min.
To neutralize, perchloric acid supernatant was transferred into a clean tube with 160 μl of concentrated sodium tetraborate solution (pH 6.5). Tubes were vortexed again and centrifuged at 12,000 rpm for 15 min. Samples were held at 0° C. during analysis.
Chromatographic separations were carried out on a Shimadzy gradient HPLC system (Shimadzy Corporation, Kyoto, Japan), which was equipped with a Model SPD-10A UV detector, a Model L-10AS pump, a Model SIL-10A autosampler, a controller Model SCL-10A and a Model CR-501 reporting integrator. Chromatography was performed on an Alltech Hypersil ODS (5 μm particle size, 4.6×250 mm, Ailtech Associates, Deerfield, Ill.) to determine cordycepin and its metabolite. The azide derivative of cordycepin was analyzed on an Alltech Hypersil BDS column (5 μm particle size, 4.6×250 mm, Alltech Associates, Deerfield, Ill.).
The mobile phase for cordycepin and metabolite analysis in serum consisted of 3% acetonitrile in 20 mM sodium borate and 10 mM EDTA (pH 6.5) at a flow of 1.4 ml/min and the mobile phase for azide derivative analysis in serum consisted of 3% acetonitrile 20 mM in potassium phosphate (pH 4.0) at a flow of 1.5 ml/min. The UV detector was set at 258 nm for analysis of cordycepin and metabolite and at 290 nm for the azide derivative.
The limit of quantitation was 0.05 μg/ml for cordycepin and metabolite and 0.5 μg/ml for the azide derivative.
Plasma concentration versus time data for nucleosides were analyzed by noncompartment methods. […] Prog. Biomed. (1983) 16:203-216.
Absolute bioavailability (F) of the azide derivative was calculated from AUCor/AUCiv, where AUC values were determined from serum nucleoside concentration versus time data.
Relative exposures for cordycepin and its metabolite in serum after or versus iv administration of the derivative were calculated from AUCor/AUCiv.

[4] = In vitro stability in PBS, mouse serum, brain and liver homogenate (FAAddP, FMAddA); assay type: in vitro ADME; details: for stability in phosphate buffer saline: PBS pH 7.4, 37° C.; for half-life at 70 μM: mouse
Method: In vitro stability in serum, brain and liver homogenate. Liver and brain homogenate were prepared in a 1: 1 (g:mL) ratio with isotonic 0.05 M phosphate buffer, pH 7.4. FAAddP (70 μM) or FMAddA (50 μM) were added to the mouse serum, the brain homogenate or the liver homogenate and incubated in a shaker water bath at 37° C. Aliquots of 100 μL were removed at time zero and at selected times for up to 6 hours. Concentrations of the compounds were determined by HPLC.
(§1) Analytical Methodology. […] The brain or liver tissue were homogenized in a 1:1 (g:mL) ratio with ice cold isotonic 0.05 M phosphate buffer, pH 7.4. […] Acetonitrile (600 μL) containing 0.1% acetic acid was added while vortexing to precipitate proteins. The tubes were centrifuged at 3,000 rpm for five minutes and the supernatant was transferred to a clean tube. Supernatant was evaporated to dryness under a stream of nitrogen gas at room temperature. The residual film was reconstituted in 110 μL of mobile phase and 50 μL was injected onto the HPLC.
(§2) Chromatographic separations were performed using a Hypersil ODS column 150×4.5 mm, 5 μm particle size (Alltech Associates, Deerfield, Ill.) preceded by a guard column packed with 30-40 μm pellicular Perisorb RP-18. Mobile phase flow rate was 2 mL/min. For the analysis of FAAddP and 2′-F-ara-ddA, the mobile phase consisted of 7% (v/v) acetonitrile in 80 mM sodium acetate, pH 5.0. […] Eluants were monitored at a UV wavelength of 260 nm.
(§3) Nucleoside standards ranging from 0.04 μg/mL to 100 μg/mL, prepared in blank PBS, serum, brain homogenate and liver homogenate were treated the same as unknown samples. Samples with nucleoside concentrations greater than 100 μg/mL were diluted with the appropriate blank matrix.
Data analysis in vitro studies.

[5] = target: T1, adenosine deaminase (type VII from calf intestinal mucosa) (Bos taurus, UniProt P56658); test: Deamination by adenosine deaminase (2′-fluoronucleosides); assay type: biochemical
T1 construct: type VII from calf intestinal mucosa; purchased Sigma Chemical Co., St. Louis, Mo. type VII; host or cells: calf intestinal mucosa
T1 sequence (P56658 1-363): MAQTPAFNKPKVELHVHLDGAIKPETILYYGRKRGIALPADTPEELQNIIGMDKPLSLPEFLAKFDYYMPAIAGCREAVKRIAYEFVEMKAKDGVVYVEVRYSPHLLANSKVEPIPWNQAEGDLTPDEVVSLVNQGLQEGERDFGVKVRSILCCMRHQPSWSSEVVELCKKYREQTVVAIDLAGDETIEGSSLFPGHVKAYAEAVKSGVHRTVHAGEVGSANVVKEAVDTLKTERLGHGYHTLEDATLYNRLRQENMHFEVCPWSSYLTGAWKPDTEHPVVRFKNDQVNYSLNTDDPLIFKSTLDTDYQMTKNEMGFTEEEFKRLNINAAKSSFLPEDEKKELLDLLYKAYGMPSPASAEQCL
Method: Deamination of 2′-F-ara-ddA and FMAddA by adenosine deaminase. Samples (1.5 mL) of 2′-F-ara-ddA (80 μM) or FMAddA (50 μM) were prepared in 0.05 M isotonic phosphate buffer, pH 7.4, and placed into a shaking water bath at 37° C. The reaction was initiated by the addition of 15 μL of adenosine deaminase (type VII from calf intestinal mucosa, Sigma Chemical Co., St. Louis, Mo.). The final activity in the incubation media was 0.05 U/mL for 2′-F-ara-ddA and 1.0 U/mL for FMAddA. At specified time intervals, aliquots of 100 μL were withdrawn for the determination of 2′-F-ara-ddA and 2′-F-ara-ddI or FMAddA and 2′-F-ara-ddI concentrations.
Mobile phase flow rate was 2 mL/min.

[6] = in vivo; details: mouse, in vivo; for half-life: t½
Excerpt: Animal studies. […] Animal studies were approved by the University of Georgia Animal Care and Use Committee and conducted in accordance with guidelines established by the Animal Welfare Act and the National Institutes of Health Guide for the Care and Use of Laboratory Animals. […] Animals were acclimatized to this environment for one week prior to the experiments.
At selected time intervals, mice (three animals per each time point) were anesthetized with diethyl ether and sacrificed by exsanguination via left ventricular heart puncture. Serum was harvested from blood collected. The brain was excised, rinsed with normal saline, blotted dry and weighed.
as §1, §2, §3
Data analysis in vivo studies. Nucleoside concentration as a function of time data were analyzed by a non-compartmental technique. […] Relative brain exposure (re) was calculated from AUCbrain/AUCserum.

[7] = test system: microsomal fraction of the human liver homogenate; test: Azido reduction assay
Method: Briefly, incubation mixtures contained either 1.5 mg of human liver fraction protein (homogenate or supernatant fractions following centrifugation) or 1.5 mg microsomal protein, 5.0 mM MgCl2, 6.0 mM NADPH and 0.4 mg/mL of 6-AAP in 0.1 M phosphate buffer saline at pH 7.4 (final volume of 0.2 mL). The reaction was initiated by adding NADPH and conducted at 37° C. for 60 minutes under nitrogen. Reactions were terminated by heating at 100° C. for 30 seconds and the proteins were removed by centrifugation at 14,000 g for six minutes. Aliquots (100 μL) were then analyzed for nucleosides by HPLC. Control incubations were performed in the absence of protein.
Inhibition of azido reduction assay: Assays were performed using 1.5 mg microsomal protein as described above following either a 45 second exposure to carbon monoxide or a 5 minute pre-incubation with 1 mM metyrapone prior to the addition of NADPH.

[8] = 6-AAP incubated in mouse liver homogenate
[9] = mouse serum, after iv azide derivative 100 mg/kg
[10] = mouse serum, after oral azide derivative 100 mg/kg
[11] = female, NIH Swiss, mouse, in vivo, po, 100 mg/kg
[12] = female, NIH-Swiss, iv, 55 mg/kg
[13] = female, NIH-Swiss, po, 55 mg/kg
[14] = female, NIH Swiss, mouse, in vivo, iv, 100 mg/kg

Structure (SMILES): [N-]=[N+]=Nc1ncnc2c1ncn2[C@@H]1O[C@H](CO)C[C@H]1O [Azide Deriv., N^6-azido-β-D-3′-deoxyribofuranosyl purine]
absolute bioavailability after oral administration ([3]; mice, azide derivative): 94% | AUC0→∞ iv [3, 9]: 47200 ± 4010 ng·h/mL | Cmax (maximal measured concentration) iv [3, 9]: 143000 ± 33400 ng/mL | T½ iv [3, 9]: 21.6 min | T½ iv ([3]; mouse serum, after iv azide derivative 100 mg/kg, listed as azide derivative): 21 min | AUC0→∞ oral [3, 10]: 44500 ± 2780 ng·h/mL | Cmax (maximal measured concentration) oral [3, 10]: 48200 ± 12300 ng/mL | T½ oral [3, 10]: 31.8 min

Structure (SMILES): Nc1ncnc2c1ncn2[C@@H]1O[C@H](CO)C[C@H]1O [Cordycepin, 3′-deoxyadenosine, reference compound]
AUC(0-inf) ([3]; female, NIH Swiss, in vivo, mouse serum, after iv azide derivative 100 mg/kg, read-out: AUC0→∞ iv): 2170 ± 350 ng·h/mL | Cmax ([3]; female, NIH Swiss, in vivo, mouse serum, after iv azide derivative 100 mg/kg, read-out: Cmax (maximal measured concentration) iv): 3890 ± 1720 ng/mL | half-life ([3]; female, NIH Swiss, in vivo, mouse serum, after iv azide derivative 100 mg/kg, read-out: T½ iv (converted)): 14.4 min | AUC(0-inf) ([3]; female, NIH Swiss, in vivo, mouse serum, after oral azide derivative 100 mg/kg, read-out: AUC0→∞ oral): 1630 ± 150 ng·h/mL | Cmax ([3]; female, NIH Swiss, in vivo, mouse serum, after oral azide derivative 100 mg/kg, read-out: Cmax (maximal measured concentration) oral): 1180 ± 600 ng/mL | half-life ([3]; female, NIH Swiss, in vivo, mouse serum, after oral azide derivative 100 mg/kg, read-out: T½ oral (converted)): 45.6 min | time of detection of cordycepin in serum above 0.05 μg/ml, iv ([3]; female, NIH Swiss, mouse, in vivo, iv): ≤ 1.5 h | time of detection of cordycepin in serum above 0.05 μg/ml, oral ([3]; female, NIH Swiss, mouse, in vivo, po): ≤ 3 h | detection in serum [3, 11]: Neither 3′-deoxyinosine nor cordycepin were detected | re - relative exposure: AUC ratio oral vs. intravenous (AUCor/AUCiv) ([3]; mouse serum, after azide derivative 100 mg/kg): 0.75 | cordycepin in serum samples collected 10 min later ([3]; mouse, in vivo, iv, 100 mg/kg): not recovered | cordycepin in serum samples collected at 5 min ([3]; mouse, in vivo, iv, 100 mg/kg): trace amount

Structure (SMILES): CNc1ncnc2c1ncn2[C@@H]1O[C@H](CO)C[C@@H]1F [FMAddA, N^6-methyl-2′,3′-dideoxy-2′-fluoro-β-D-arabinofuranosyladenine]
stability in phosphate buffer saline [4]: stable | half-life in brain homogenate ([4]; mouse brain homogenate): stable | t1/2 in liver homogenate (metabolized to 2′-F-ara-ddI) ([4]; mouse liver homogenate): 546 min | degradation half-life in mouse serum ([4]; mouse serum, 37° C.): stable | t½ upon addition of adenosine deaminase to PBS ([5]; PBS + adenosine deaminase): 27.6 min | extent of conversion to 2′-F-ara-ddI upon addition of adenosine deaminase ([5]; PBS and brain homogenate + adenosine deaminase): virtually all of the prodrug was converted | t1/2 upon addition of adenosine deaminase to brain homogenate ([5]; brain homogenate + adenosine deaminase): 222 min | intravenously administered dose of prodrug converted to 2′-F-ara-ddI [6]: 5.6% | Steady-state volume of distribution ([6]; iv): 0.79 L/kg | Total clearance ([6]; iv): 32.2 mL/min/kg

Continued, in another order:

half-life at 100 μg/mL [1]: 134 min | Kel [2, 8]: 0.26 h⁻¹ | T1/2 [2, 8]: 147 min | Kel ([2]; Ara-A incubated in mouse liver homogenate): 0.31 h⁻¹
Structure (SMILES): O=c1[nH]cnc2c1ncn2[C@@H]1O[C@H](CO)[C@@H](O)[C@@H]1O [Ara-H, 9-(β-D-arabinofuranosyl)hypoxanthine]

stability in phosphate buffer saline [4]: stable | half-life at 70 μM ([4]; brain homogenate, pH 7.4, mouse brain homogenate, read-out: half-life in brain homogenate (converted)): 366 min | half-life at 70 μM ([4]; liver homogenate, pH 7.4, mouse liver homogenate, biphasic, after initial 45 minutes, read-out: t1/2 in liver homogenate, subsequent slower phase (converted)): 464 min | half-life at 70 μM ([4]; liver homogenate, pH 7.4, mouse liver homogenate, biphasic, initial phase, read-out: t1/2 in liver homogenate, initial 45 minutes (converted)): 28.8 min | half-life at 70 μM ([4]; mouse serum, 37° C., read-out: degradation half-life in mouse serum (converted)): 145 min | direct conversion to 2′-F-ara-ddI by adenosine deaminase ([5]; in vitro biotransformation): negligible rate | intravenously administered dose of prodrug converted to 2′-F-ara-ddI ([6]; female, NIH-Swiss): Approximately 30% | clearance ([6]; female, NIH-Swiss, iv): 18.7 mL/min/kg | t½ [6, 12]: 13.2 min | half-life [6, 12]: 13.2 min | AUC/Dose [6, 13]: 0.19 μM · h/μmol/kg | bioavailability [6, 13]: 19% | AUC ([6]; female, NIH-Swiss, po, 55 mg/kg, AUC0-τ): 34.2 µM·h | half-life [6, 13]: 91.8 min
Structure (SMILES): [N-]=[N+]=Nc1ncnc2c1ncn2C1OC(CO)CC1F [FAAddP, 6-azido-2′,3′-dideoxy-2′-fluoro-β-D-arabinofuranosylpurine]
azido reduction (metabolites formed) [7]: metabolized to 2′-F-ara-ddA and 2′-F-ara-ddI

AUC(0-inf) [3, 14]: 3680 ± 260 ng·h/mL | half-life [3, 14]: 30 min | AUC(0-inf) [3, 11]: 5890 ± 590 ng·h/mL | half-life [3, 11]: 39 min
Structure (SMILES): O=c1[nH]cnc2c1ncn2[C@@H]1O[C@H](CO)C[C@H]1O [Metabolite, 3′-deoxyinosine]
detection in serum [3, 11]: Neither 3′-deoxyinosine nor cordycepin were detected
